The values that follow come from patent US7956196B2, “1,3-dihydro-benzimidazol-2-ylidene amines as inhibitors of respiratory syncytial virus replication” (Tibotec Pharmaceuticals Ltd., priority 2005, dated 2011).

Molecules are shown by their SMILES. Where a name gives a salt, the structure may show the parent alone. Read-outs that look alike come from different tables or passages of the source.

The test system of series [1] is Respiratory Syncytial Virus. The series is described as follows: In vitro screening for activity against RSV, automated tetrazolium-based (MTT) colorimetric assay in HeLa cells. The settings on record: human respiratory syncytial virus, 168 h, read-out: pIC50 (converted). The class given is cell-based. The source says: In vitro screening of compounds of formula (I) for activity against RSV. The percent protection against cytopathology caused by viruses (antiviral activity or EC50) achieved by tested compounds and their cytotoxicity (CC50) are both calculated from dose-response curves. The selectivity of the antiviral effect is represented by the selectivity index (SI), calculated by dividing the CC50 (cytotoxic dose for 50% of the cells) by the EC50 (antiviral activity for 50% of the cells). The tables in the above experimental part list the category to which each of the prepared compounds belong: Compounds belonging to activity category “A” have a pEC50 (-log of EC50 when expressed in molar units) equal to or more than 7. Compounds belonging to activity category “B” have a pEC50 value between 6 and 7.
Automated tetrazolium-based colorimetric assays were used for determination of EC50 and CC50 of test compounds. Flat-bottom, 96-well plastic microtiter trays were filled with 180 μl of Eagle's Basal Medium, supplemented with 5% FCS (0% for FLU) and 20 mM Hepes buffer. Subsequently, stock solutions (7.8×final test concentration) of compounds were added in 45 μl volumes to a series of triplicate wells so as to allow simultaneous evaluation of their effects on virus- and mock-infected cells. Five five-fold dilutions were made directly in the microtiter trays using a robot system. Untreated virus controls, and HeLa cell controls were included in each test. Approximately 100 TCID50 of Respiratory Syncytial Virus was added to two of the three rows in a volume of 50 μl. The same volume of medium was added to the third row to measure the cytotoxicity of the compounds at the same concentrations as those used to measure the antiviral activity. After two hours of incubation, a suspension (4×10^5 cells/ml) of HeLa cells was added to all wells in a volume of 50 μl. The cultures were incubated at 37° C. in a 5% CO2 atmosphere. Seven days after infection the cytotoxicity and the antiviral activity was examined spectrophotometrically. To each well of the microtiter tray, 25 μl of a solution of MTT (3-(4,5-dimethylthiazol-2-yl)-2,5-diphenyltetrazolium bromide) was added. The trays were further incubated at 37° C. for 2 hours, after which the medium was removed from each cup. Solubilization of the formazan crystals was achieved by adding 100 μl 2-propanol. Complete dissolution of the formazan crystals were obtained after the trays have been placed on a plate shaker for 10 min. Finally, the absorbances were read in an eight-channel computer-controlled photometer (Multiskan MCC, Flow Laboratories) at two wavelengths (540 and 690 nm). The absorbance measured at 690 nm was automatically subtracted from the absorbance at 540 nm, so as to eliminate the effects of non-specific absorption.
The percent protection against cytopathology caused by viruses (antiviral activity or EC50) achieved by tested compounds and their cytotoxicity (CC50) were both calculated from dose-response curves. The selectivity of the antiviral effect is represented by the selectivity index (SI), calculated by dividing the CC50 (cytotoxic dose for 50% of the cells) by the EC50 (antiviral activity for 50% of the cells).

Setting [2] is: protection against RSV cytopathology in HeLa cells, MTT readout seven days after infection.

`CCOc1ccc(CCn2c(=NCCc3ccc(OC)cc3)n(Cc3cccc4cccnc34)c3ccccc32)cc1` [Compound 48]: in series [1] (setting [2]), the IC50 was 200 nM.

Broadly, the melting point is the temperature, or range, at which the solid turns liquid. With `COc1ccc(C(=O)N=c2n(Cc3ccc(C#N)cc3)c3ccccc3n2Cc2cccc3cccnc23)cc1` [Compound 27], the melting point stood at 150 °C. Moreover, in series [1] (HeLa), the IC50 was 20000 nM.

`COc1ccccc1CCN=c1n(Cc2ccc(C#N)cc2)c2ccccc2n1Cc1cccc2cccnc12` [Compound 14]: in series [1] (setting [2]), the IC50 was 158 nM.

For the compound `N#Cc1ccc(Cn2c(=NCCC(c3ccccc3)c3ccccc3)n(Cc3cccc4cccnc34)c3ccccc32)cc1` [Compound 18], the melting point turned out to be 184 °C. For the same compound, the IC50 in series [1] (setting [2]) was 316 nM.

Regarding `COc1ccc(CCN=c2n(Cc3ccc(Br)cc3)c3ccccc3n2Cc2cccc3cccnc23)cc1` [Compound 45], the IC50 in series [1] (setting [2]) was 100 nM.

In the case of `COc1ccc(CCN=c2n(Cc3cccc(Cl)c3)c3ccccc3n2Cc2cccc3cccnc23)cc1` [Compound 49], the IC50 in series [1] (setting [2]) is 251 nM.

Compound `CC(C)Oc1ccc(C(=O)N=c2n(Cc3ccc(C#N)cc3)c3ccccc3n2Cc2cccc3cccnc23)cc1` [Compound 30] had a melting point of 118 °C. Also, in series [1] (setting [2]), the IC50 is 50100 nM.

For the compound `COC(=O)c1ccc(Cn2c(=NCCc3ccc(Br)cc3)n(Cc3cccc4cccnc34)c3ccccc32)cc1` (as salt: HCl) [Compound 35], the melting point is 128 °C.

The compound `N#Cc1ccc(Cn2c(=NC(=O)c3ccc(Cl)cc3Cl)n(Cc3cccc4cccnc34)c3ccccc32)cc1` [Compound 23] yielded a melting point of 114 °C. Also, the IC50 in series [1] (HeLa) is 631 nM.

`CCOc1ccc(CCn2c(=NCCc3ccc(Br)cc3)n(Cc3cccc4cccnc34)c3ccccc32)cc1` [Compound 51]: in series [1] (setting [2]), the IC50 is 501 nM.

The compound `N#Cc1ccc(Cn2c(=NC(=O)c3ccc(Oc4ccccc4)cc3)n(Cc3cccc4cccnc34)c3ccccc32)cc1` [Compound 33] returned a melting point of 66 °C. The IC50 in series [1] (setting [2]) was 100000 nM.

Turning to `N#Cc1ccc(Cn2c(=NC(=O)c3cccc(Cl)c3)n(Cc3cccc4cccnc34)c3ccccc32)cc1` [Compound 19], the melting point was found to be 160 °C. The IC50 in series [1] (setting [2]) was 316 nM.

As to `N#Cc1ccc(Cn2c(=NC(=O)c3cc(C(F)(F)F)cc(C(F)(F)F)c3)n(Cc3cccc4cccnc34)c3ccccc32)cc1` [Compound 24], the melting point was 190 °C. The IC50 in series [1] (setting [2]) is 794 nM.

Take `COC(=O)c1ccc(Cn2c(=NCCCN3CCOCC3)n(Cc3cccc4cccnc34)c3ccccc32)cc1` [Compound 37]: in series [1] (setting [2]), the IC50 is 126 nM.

For `Cc1ccc(O)c(Cn2c(=NC3CCN(CCN)CC3)n(Cc3ccc(C#N)cc3)c3ccccc32)n1` [Compound 55], the melting point stood at 212 °C. Further, in series [1] (setting [2]), the IC50 is 63.1 nM.

For `COc1ccc(CCN=c2n(Cc3ccc(C)cc3)c3ccccc3n2Cc2cccc3cccnc23)cc1` [Compound 42], the IC50 in series [1] (HeLa) was 79.4 nM.

In the case of `N#Cc1ccc(CN=c2n(Cc3ccc(C#N)cc3)c3ccccc3n2Cc2cccc3cccnc23)cc1` [Compound 2], the IC50 in series [1] (setting [2]) was 10 nM.

As to `COC(=O)c1ccc(CN=c2n(Cc3ccc(C#N)cc3)c3ccccc3n2Cc2cccc3cccnc23)cc1` [Compound 5], the IC50 in series [1] (setting [2]) is 15.8 nM.

The compound `COC(=O)c1cccc(Cn2c(=NCCc3ccc(Br)cc3)n(Cc3cccc4cccnc34)c3ccccc32)c1` [Compound 43] yielded a melting point of 80 °C. In addition, in series [1] (setting [2]), the IC50 is 79.4 nM.

`COc1ccc(CCN=c2n(Cc3ccc(OC)cc3)c3ccccc3n2Cc2cccc3cccnc23)cc1` [Compound 41]: the IC50 in series [1] (setting [2]) was 63.1 nM.

In the case of `COc1ccc(CCN=c2n(Cc3ccc(Cl)cc3)c3ccccc3n2Cc2cccc3cccnc23)cc1` [Compound 46], the melting point stood at 250 °C. The IC50 in series [1] (setting [2]) was 100 nM.

Consider `Cc1cccc(C(=O)N=c2n(Cc3ccc(C#N)cc3)c3ccccc3n2Cc2cccc3cccnc23)c1` [Compound 20], for which the melting point was determined as 158 °C. Further, the IC50 in series [1] (setting [2]) is 398 nM.

Regarding `COC(=O)c1ccc(Cn2c(=NCCC(c3ccccc3)c3ccccc3)n(Cc3cccc4cccnc34)c3ccccc32)cc1` [Compound 38], the melting point is 146 °C. Moreover, the IC50 in series [1] (setting [2]) was 158 nM.

For the compound `N#Cc1ccc(Cn2c(=NCCCN3CCOCC3)n(Cc3cccc4cccnc34)c3ccccc32)cc1` [Compound 13], the melting point was 80 °C. Further, the IC50 in series [1] (setting [2]) was 126 nM.

In the case of `COc1cc(C(=O)N=c2n(Cc3ccc(C#N)cc3)c3ccccc3n2Cc2cccc3cccnc23)cc(OC)c1OC` [Compound 32], the melting point was found to be 108 °C. In series [1] (HeLa), the IC50 was greater than 100000 nM.

Regarding `COc1ccc(CCN=c2n(Cc3ccc(F)cc3)c3ccccc3n2Cc2cccc3cccnc23)cc1` [Compound 47], the IC50 in series [1] (setting [2]) is 158 nM.

`COC(=O)c1ccc(Cn2c(=NC(=O)c3cc(C(F)(F)F)cc(C(F)(F)F)c3)n(Cc3cccc4cccnc34)c3ccccc32)cc1` [Compound 39]: the melting point was 204 °C. The IC50 in series [1] (setting [2]) is 1580 nM.

For the compound `N#Cc1ccc(C(=O)Cn2c(=NCCc3ccc(Br)cc3)n(Cc3cccc4cccnc34)c3ccccc32)cc1` [Compound 53], the IC50 in series [1] (setting [2]) was 2510 nM.

Take `N#Cc1ccc(Cn2c(=NCCCN3CCOCC3)n(Cc3ccc4ccccc4n3)c3ccccc32)cc1` [Compound 56]: in series [1] (setting [2]), the IC50 is 200 nM.

As to `COC(=O)c1ccc(Cn2c(=NCCc3ccc(Br)cc3)n(Cc3cccc4cccnc34)c3ccccc32)cc1` [Compound 35], in series [1] (setting [2]), the IC50 was 7.94 nM.

`N#Cc1ccc(Cn2c(=NCCc3ccc(OCCO)cc3)n(Cc3cccc4cccnc34)c3ccccc32)cc1` [Compound 1]: the IC50 in series [1] (setting [2]) was 6.31 nM.

Regarding `O=C(Cn1c(=NCCc2ccc(Br)cc2)n(Cc2cccc3cccnc23)c2ccccc21)c1ccc(Br)cc1` [Compound 52], the melting point turned out to be 120 °C. In addition, the IC50 in series [1] (HeLa) was 631 nM.

Take `N#Cc1ccc(Cn2c(=NCc3cccc(C#N)c3)n(Cc3cccc4cccnc34)c3ccccc32)cc1` [Compound 10]: the IC50 in series [1] (setting [2]) is 63.1 nM.

For `N#Cc1ccc(Cn2c(=NC(=O)c3ccc(-c4ccccc4)cc3)n(Cc3cccc4cccnc34)c3ccccc32)cc1` [Compound 29], the melting point worked out at 100 °C. Also, in series [1] (setting [2]), the IC50 was 39800 nM.

Compound `N#Cc1ccc(Cn2c(=NC(=O)c3ccc(Br)cc3)n(Cc3cccc4cccnc34)c3ccccc32)cc1` [Compound 26] gave a melting point of 125 °C. The IC50 in series [1] (setting [2]) was 10000 nM.

As for `N#Cc1ccc(Cn2c(=NCCCN3CCCC3=O)n(Cc3cccc4cccnc34)c3ccccc32)cc1` [Compound 15], the IC50 in series [1] (setting [2]) was 200 nM.

Take `Cc1ccc(O)c(Cn2c(=NCCc3ccc(Br)cc3)n(Cc3ccc(C#N)cc3)c3ccccc32)n1` [Compound 57]: the melting point came to 204 °C. Also, the IC50 in series [1] (setting [2]) was 251 nM.

The compound `N#Cc1ccc(Cn2c(=NC(=O)c3cccc([N+](=O)[O-])c3)n(Cc3cccc4cccnc34)c3ccccc32)cc1` [Compound 22] showed a melting point of 222 °C. The IC50 in series [1] (setting [2]) is 631 nM.

Turning to `N#Cc1ccc(Cn2c(=NC(=O)c3ccc([N+](=O)[O-])cc3)n(Cc3cccc4cccnc34)c3ccccc32)cc1` [Compound 28], the melting point worked out at 196 °C. The IC50 in series [1] (setting [2]) is 31600 nM.

As to `N#Cc1ccc(Cn2c(=NCCc3ccc(F)cc3)n(Cc3cccc4cccnc34)c3ccccc32)cc1` [Compound 11], in series [1] (setting [2]), the IC50 was 79.4 nM.

In turn, `COc1ccc(CCCN=c2n(Cc3ccc(C#N)cc3)c3ccccc3n2Cc2cccc3cccnc23)cc1` [Compound 9] registered a melting point of 80 °C. Also, the IC50 in series [1] (setting [2]) was 50.1 nM.

On to `N#Cc1ccc(Cn2c(=NCCc3cccc(F)c3)n(Cc3cccc4cccnc34)c3ccccc32)cc1` [Compound 8], for which the melting point amounted to 102 °C. In series [1] (setting [2]), the IC50 was 50.1 nM.

Regarding `N#Cc1ccc(Cn2c(=NCCc3ccc(Br)cc3)n(Cc3cccc4cccnc34)c3ccccc32)cc1` [Compound 6], the IC50 in series [1] (setting [2]) was 31.6 nM.

Consider `N#Cc1ccc(Cn2c(=NCCc3ccccc3)n(Cc3cccc4cccnc34)c3ccccc32)cc1` [Compound 25], for which, in series [1] (setting [2]), the IC50 was 2000 nM.
